“Also recorded” adds a separate entry of the source.
Experiments:
A549 lung cancer cells = test: Clonogenic assay in A549 lung cancer cells; format: cell-based; conditions: combination with chemotherapeutic drug
Description: For the clonogenic assay, exponentially growing cells were counted, diluted, and seeded in triplicate at 1,000 cells/well in a 6-well plate. Cells were incubated for 24 h in a humidified CO2 incubator at 37° C., and exposed to drugs or vehicle for 48 h. The chemotherapeutic drugs, etoposide, cisplatin, or carboplatin were added to some of the samples to see the effect of the drug in the presence and absence of the small inhibitors of Nrf2. After the treatment period, the drug containing media was replaced with complete growth media. To assess clonogenic survival following the drug treatment, A549 cells from a type of non-small cell lung cancer cell line were incubated in complete growth medium at 37° C. for 10-14 days and then stained with 50% methanol-crystal violet solution. Only colonies with more than 50 cells were counted (final concentration of DMSO in the growth media was 0.1%).
(§1) For the clonogenic assays, 1,000 cells/well were plated in a 6-well plate. The next day, the cells were treated with vehicle (DMSO), Nrf2 inhibitor, a chemotherapeutic drug, or a combination of Nrf2 and chemotherapeutic drugs for 48 hrs. The drug containing media was then replaced with regular growth media and the cells were incubated for an additional 10 days. At the end of incubation period, the colonies were stained with Crystal Violet and imaged.

[1] = system: mRNA expression of Nrf2 and its downstream target genes, GCLm and NQO1, A549 cells; test: Real time RT-PCR of Nrf2 and downstream target genes in A549 cells; format: cell-based; conditions: for NRF2 signaling, fold change in mRNA by real time RT-PCR / Nrf2 (and GCLm, NQO1) expression, real time PCR based validation: A549 cells; for NRF2 signaling, fold change in mRNA by real time RT-PCR: 48 h (compounds 1, 3), 72 h (compound 4)
Description: […] The mRNA expression of Nrf2 and its downstream target genes, GCLm and NQO1 was measured by RT-PCR. (NC means no significant change in gene expression in comparison with vehicle group; M represents the concentration of drug used in the gene expression studies and it is twice the IC50 values generated from primary screening with A549-ARE reporter cell lines).

[2] = system: Ewing sarcoma cells (A4573); test: Soft agar colony assay in Ewing sarcoma cells; format: cell-based; conditions: 72 h
Description: (A) Ewing sarcoma cells (A4573) cells were on soft agar and treated with doxorubicin (2 nM) singly or in combination with compound 4 (10 μM) for 72 h. At the end of treatment, regular growth media was added and cells were further incubated for 8-10 days and colonies were stained with crystal violet and counted. (B) Rhabdomyosarcoma cells (Rh30) cells were on soft agar and treated with doxorubicin (2 nM) and etoposide (5-nM) singly or in combination with compound 4 (10 μM) for 72 h. At the end of treatment, regular growth media was added and cells were further incubated for 8-10 days and colonies were stained with crystal violet and counted;

H460 lung cancer cells = test: Clonogenic assay in H460 lung cancer cells; format: cell-based; conditions: for Cytotoxicity of chemotherapeutic drugs in combination with the compound, clonogenic assay: H460 cells, combination with chemotherapeutic drug
Description: (§2) (A) H460, a NSCLC with a point mutation in KEAP1, is more sensitive to compound 4 than H460-KEAP1 Knock-in H460 cells expressing WT KEAP1. The cells were incubated with the inhibitor for 48 h. Colonies were stained with crystal violet staining and manually counted. (B-C) A549 and H460 cells were treated with different concentrations of paclitaxel, doxorubicin and carboplatin singly or in combination with compound 4 for 72 h. At the end of treatment, regular growth media was added and cells were further incubated for 8-10 days and stained with crystal violet. […] Cells treated with Chemo drug alone or a combination of compound 4 and chemo drug were incubated with luminogenic caspase substrate and change in luminescence was measured. Caspase activity was normalized to the number of viable cells using CellTiter-Blue assay.
as §1

[3] = system: orthotopic lung tumor model; test: Orthotopic lung tumor model, NSCLC xenograft; format: in vivo, Mice; conditions: three weeks post-treatment; single agent and combination with carboplatin
Description: A549 cells were injected in the flanks of athymic nude mice and once tumor volume reached 50-100 mm^3, treatment was initiated. Vehicle, carboplatin (5 mg/kg daily Monday to Friday), compound 4 (30 mg/kg daily Monday to Friday) or a combination of compound 4 and carboplatin was administered for three weeks. Values represent tumor volume ±s.e.m. for all groups (A). […] Tumors were excised and weight at the end of treatment period. […] For each group, pretreatment available lung volume was defined as 100% and compared with post-treatment lung volumes. Mice in the vehicle treated group died at 3 weeks;

[4] = system: mRNA expression of Nrf2 and its downstream target genes, GCLm and NQO1, H1437 cells; test: Real time RT-PCR of Nrf2 and downstream target genes in H1437 cells; format: cell-based
Description: For the real time reverse transcription polymerase chain reaction (RT-PCR) assay, cells were treated with Nrf2 inhibitors for 36-48 hrs, followed by total RNA isolation. The mRNA expression of Nrf2 and its downstream target genes, GCLm and NQO1 was measured by RT-PCR. (NC means no significant change in gene expression in comparison with vehicle group; M represents the concentration of drug used in the gene expression studies and it is twice the IC50 values generated from primary screening with A549-ARE reporter cell lines).

[5] = system: Caspase 3/7 activity, H460 cells; test: Caspase 3/7 activity in H460 cells; format: cell-based; conditions: combination of compound and chemo drug
Description: as §2

[6] = system: orthotopic lung tumor model (large cell model); test: Orthotopic lung tumor model (large cell model); format: in vivo, Mice; conditions: two weeks post-treatment; single agent and combination with carboplatin
Text: For each group, pretreatment available lung volume was defined as 100% and compared with post-treatment lung volumes.

| SMILES | Cytotoxicity of chemotherapeutic drugs in combination with the compound, clonogenic assay (A549 lung cancer cells) | NRF2 signaling, fold change in mRNA by real time RT-PCR [1] | Nrf2, GCLm, and NQO1 gene expression, real time PCR based validation assay ([1]; cell line not given) | Colony growth of A4573 cells on soft agar, combination ([2]; 10 μM with doxorubicin (2 nM)) | Colony growth of A4573 cells on soft agar, single agent ([2]; 10 μM) | Selective toxicity: H460 (KEAP1 point mutation) versus H460-KEAP1 Knock-in cells expressing WT KEAP1 (H460 lung cancer cells; 48 h, colonies counted) | Cytotoxicity of chemotherapeutic drugs in combination with the compound, clonogenic assay (H460 lung cancer cells) | Tumor free lung volume, orthotopic lung tumor model [3] | Nrf2 (and GCLm, NQO1) expression, real time PCR based validation [4] | NRF2 and its target genes, time course ([1]; 5 μM) | Nrf2 (and GCLm, NQO1) expression, real time PCR based validation [1] | Caspase 3/7 activity [5] | Tumor free lung volume, orthotopic lung tumor model [6] | NQO1 and GCLm expression, real time PCR ([1]; A549 and H1437 cells) |
| --- | --- | --- | --- | --- | --- | --- | --- | --- | --- | --- | --- | --- | --- | --- |
| O=C(Nc1ncc(Cc2ccc(C(F)(F)F)cc2)s1)c1ccc(-c2cccc([N+](=O)[O-])c2)o1 [Compound 1] | more effective in combination with a chemotherapeutic drug | inhibit NRF2 signaling | decrease in Nrf2, GCLm, and NQO1 gene expression |  |  |  |  |  |  |  |  |  |  |  |
| Cc1ccccc1C(=O)N1CCc2cc(-c3nc(NC(=O)Cc4ccc5c(c4)OCO5)sc3C)ccc21 [compound 4] | more effective in combination with a chemotherapeutic drug; also recorded: potentiates the toxicity of standard care chemotherapy drugs | inhibits NRF2 signaling |  | potentiates the cytotoxicity of standard care chemotherapy drugs | significant growth inhibitory activity as single agent | selectively toxic to cells with KEAP1 mutations | enhance the cytotoxicity of the chemotherapeutic drug paclitaxel; also recorded: potentiates the toxicity of standard care chemotherapy drugs | shows anti-tumor efficacy as a single agent and in combination with carboplatin | significant reduction in Nrf2, GCLm, and NQO1 expression | Time dependent reduction in NRF2 and its target genes | significant reduction in Nrf2, GCLm, and NQO1 expression | increased Caspase 3/7 activity | shows anti-tumor efficacy as a single agent and in combination with carboplatin |  |
| CC1(C)CC2CC(C)(CN2S(=O)(=O)c2ccc(C(=O)Nc3ccc(Cl)c(S(=O)(=O)N4CCOCC4)c3)cc2)C1 (stereo not drawn) [compound 3] | enhance the cytotoxicity of standard care chemotherapeutic drugs | inhibit NRF2 signaling |  |  |  |  | enhance the cytotoxicity of standard care chemotherapeutic drugs |  | inhibit Nrf2 expression |  | inhibit Nrf2 expression |  |  | Inhibition of NQO1 expression as well as some inhibition of GCLm expression |

From US20160046616A1, “NRF2 SMALL MOLECULE INHIBITORS FOR CANCER THERAPY” (THE JOHNS HOPKINS UNIVERSITY, priority 2013, published 2016)
